This note sets out measurements from US9447028B2, “Therapeutic aryl-amido-aryl compounds and their use” (King's College London, priority 2009, dated 2016).

Where only a bound is given, the exact number is not on record here.

Type in all cases: cell-based
One assay has as its target T1, RARγ (Homo sapiens, UniProt P13631).
T1 construct: gal4 (fusion partner); expressed in transfected cells; host or cells: COS-7
T1 sequence (P13631 185-419 limits assumed): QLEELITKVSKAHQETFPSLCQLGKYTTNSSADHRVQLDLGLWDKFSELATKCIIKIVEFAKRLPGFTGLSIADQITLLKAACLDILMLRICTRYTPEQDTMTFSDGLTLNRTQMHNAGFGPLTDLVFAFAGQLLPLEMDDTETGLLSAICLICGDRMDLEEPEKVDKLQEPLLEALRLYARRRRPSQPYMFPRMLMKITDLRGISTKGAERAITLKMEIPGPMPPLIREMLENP
Nature of the assay: Transactivation assay for RAR gamma (gal4-RAR fusion, luciferase reporter, COS-7 cells). The following applies: ratio of test compound EC50 to that of atRA; inactive = no agonist action at the highest concentration tested. An outline of the steps: (§1)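 COS-7 cells co-transfected with gal4–RAR ligand-binding-domain fusion and pFR-luc reporter, then treated with compound in phenol-red-free DMEM (1% DMSO) for about one day. Luciferase read after lysis with BrightGlo; EC50 values from replicate experiments given as a ratio of means.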

For the next assay, the target named is T2, RARβ (Homo sapiens, UniProt P10826).
T2 construct: gal4 (fusion partner); expressed in transfected cells; host or cells: COS-7
T2 sequence (P10826 183-417 limits assumed): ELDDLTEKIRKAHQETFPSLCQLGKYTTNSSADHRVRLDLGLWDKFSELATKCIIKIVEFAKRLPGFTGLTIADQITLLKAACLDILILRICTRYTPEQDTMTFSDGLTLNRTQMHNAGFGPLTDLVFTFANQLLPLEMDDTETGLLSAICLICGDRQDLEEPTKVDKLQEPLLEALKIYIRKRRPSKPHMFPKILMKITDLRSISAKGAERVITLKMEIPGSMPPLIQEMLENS
Briefly: Transactivation assay for RAR beta (gal4-RAR fusion, luciferase reporter, COS-7 cells). To be noted: ratio of test compound EC50 to that of atRA; inactive = no agonist action at the highest concentration tested. The gist of the method: as §1
(In a reporter assay the amount or activity of a reporter protein is the signal.)

For a further assay, the target named is T3, RARα (Homo sapiens, UniProt P10276).
T3 construct: gal4 (fusion partner); expressed in transfected cells; host or cells: COS-7
T3 sequence (P10276 183-417 limits assumed): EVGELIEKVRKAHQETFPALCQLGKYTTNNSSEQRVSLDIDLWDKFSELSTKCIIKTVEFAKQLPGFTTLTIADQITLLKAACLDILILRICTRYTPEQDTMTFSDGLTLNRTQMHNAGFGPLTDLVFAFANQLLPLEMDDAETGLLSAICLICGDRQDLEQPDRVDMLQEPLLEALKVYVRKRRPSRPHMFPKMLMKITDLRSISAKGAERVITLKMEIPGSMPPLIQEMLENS
Briefly: Transactivation assay for RAR alpha (gal4-RAR fusion, luciferase reporter, COS-7 cells). The following applies: for RARα/RARβ ratio (*): fold-selectivity for RARα over RARβ; for RARα activity ratio: ratio of test compound EC50 to that of atRA on the same plate. The gist of the method: as §1

As to `COc1c(Cl)cc(C(=O)Nc2ccc(C(=O)O)c(F)c2)cc1OC1CCC1` [AAA-100, 4-(3-Chloro-5-cyclobutoxy-4-methoxybenzamido)-2-fluorobenzoic acid], at RARγ, the RARγ activity ratio is recorded as 11818. For the same molecule, the RARβ activity ratio on RARβ was determined as 3273. On RARα, the “RARα/RARβ ratio (*)” value was 99 and the RARα activity ratio is reported as 33.
Consider `CCC(CC)Oc1cc(C(=O)Nc2ccc(C(=O)O)cc2)cc(Cl)c1OC` [AAA-101, 4-(3-Chloro-4-methoxy-5-(pentan-3-yloxy)benzamido)benzoic acid], for which, at RARγ, the RARγ activity ratio is recorded as 375. The RARβ activity ratio on RARβ came out at 39. Also, at RARα, the “RARα/RARβ ratio (*)” value turned out to be 23 and the RARα activity ratio came out at 1.7.
As for `CCC(CC)Oc1cc(C(=O)Nc2ccc(C(=O)O)c(C)c2)cc(Cl)c1OC` [AAA-102, 4-(3-Chloro-4-methoxy-5-(pentan-3-yloxy)benzamido)-2-methylbenzoic acid], the RARγ activity ratio on RARγ is 833. The RARβ activity ratio at RARβ worked out at 73. Besides, on RARα, the “RARα/RARβ ratio (*)” value came to 33 and the RARα activity ratio came to 2.2.
Turning to `CCC(CC)Oc1cc(C(=O)Nc2ccc(C(=O)O)c(F)c2)cc(Cl)c1OC` [AAA-103, 4-(3-Chloro-4-methoxy-5-(pentan-3-yloxy)benzamido)-2-fluorobenzoic acid], the RARγ activity ratio on RARγ turned out to be 583. In addition, the RARβ activity ratio on RARβ stood at 57. For the same molecule, on RARα, the “RARα/RARβ ratio (*)” value is 21 and the RARα activity ratio amounted to 2.6.
The corresponding values for `COCCOc1cc(C(=O)Nc2ccc(C(=O)O)c(F)c2)cc(Cl)c1OC` [AAA-104, 4-(3-Chloro-4-methoxy-5-(2-methoxyethoxy)benzamido)-2-fluorobenzoic acid] are 5000, 10164, 535 and 19.
As to `COc1c(Cl)cc(C(=O)Nc2ccc(C(=O)O)cc2)cc1OCC(C)(C)C` [AAA-105, 4-(3-Chloro-4-methoxy-5-(neopentyloxy)benzamido)benzoic acid], on RARγ, the RARγ activity ratio was 941. Further, on RARβ, the RARβ activity ratio is reported as 8.4. For the same molecule, on RARα, the “RARα/RARβ ratio (*)” value is 13 and the RARα activity ratio stood at 0.66.
For the molecule `CCOc1cc(C(=O)Nc2ccc(C(=O)O)cc2)cc(OCC)c1Br` [AAA-106, 4-(4-Bromo-3,5-diethoxybenzamido)benzoic acid], the RARγ activity ratio on RARγ is given as 2326. Moreover, the RARβ activity ratio at RARβ stood at 2245. In addition, on RARα, the “RARα/RARβ ratio (*)” value came to 34 and the RARα activity ratio is given as 66.
For `CC(C)Oc1cc(C(=O)Nc2ccc(C(=O)O)cc2)cc(OC(C)C)c1Br` [AAA-107, 4-(4-Bromo-3,5-diisopropoxybenzamido)benzoic acid] the same measures were 2833, 647, 135 and 4.8.
For `CC(C)Oc1cc(C(=O)Nc2ccc(C(=O)O)c(F)c2)cc(OC(C)C)c1Br` [AAA-108, 4-(4-Bromo-3,5-diisopropoxybenzamido)-2-fluorobenzoic acid] the same measures were 32500, 1727, 338 and 5.1.
Turning to `CC(C)Oc1cc(C(=O)Nc2ccc(C(=O)O)c(O)c2)cc(OC(C)C)c1Br` [AAA-109, 4-(4-Bromo-3,5-diisopropoxybenzamido)-2-hydroxybenzoic acid], the RARγ activity ratio at RARγ is 792000. On RARβ, the RARβ activity ratio is 1583. At RARα, the “RARα/RARβ ratio (*)” value is 396 and the RARα activity ratio is recorded as 4.
The corresponding values for `CCOc1cc(C(=O)Nc2ccc(C(=O)O)c(C)c2)cc(OCC)c1Br` [AAA-110, 4-(4-Bromo-3,5-diethoxybenzamido)-2-methylbenzoic acid] are more than 12000, 1921, 120 and 16.
For `Cc1cc(NC(=O)c2cc(OC(C)C)c(Br)c(OC(C)C)c2)ccc1C(=O)O` [AAA-111, 4-(4-Bromo-3,5-diisopropoxybenzamido)-2-methylbenzoic acid] the same measures were 50000, 712, 71 and 10.
In the case of `CC(C)Oc1cc(C(=O)Nc2ccc(C(=O)O)cc2)cc(OC(C)C)c1Cl` [AAA-112, 4-(4-Chloro-3,5-diisopropoxybenzamido)benzoic acid], on RARγ, the RARγ activity ratio was determined as 1268. For the same molecule, the RARβ activity ratio on RARβ was found to be 2464. Further, on RARα, the “RARα/RARβ ratio (*)” value amounted to 1212 and the RARα activity ratio was found to be 2.
With `Cc1cc(NC(=O)c2cc(Cl)c(Cl)c(OC(C)C)c2)ccc1C(=O)O` [AAA-113, 4-(3,4-Dichloro-5-isopropoxybenzamido)-2-methylbenzoic acid], on RARγ, the RARγ activity ratio came out at 11093. In addition, on RARβ, the RARβ activity ratio was 900. Further, on RARα, the “RARα/RARβ ratio (*)” value came out at 231 and the RARα activity ratio was 3.9.
Turning to `CCOc1cc(C(=O)Nc2ccc(C(=O)O)cc2)cc(OC(CC)CC)c1Cl` [AAA-114, 4-(4-Chloro-3-ethoxy-5-(pentan-3-yloxy)benzamido)benzoic acid], on RARγ, the RARγ activity ratio came out at 22759. At RARβ, the RARβ activity ratio worked out at 100. For the same molecule, at RARα, the “RARα/RARβ ratio (*)” value is listed as 23 and the RARα activity ratio is listed as 4.4.
`CCOc1cc(C(=O)Nc2ccc(C(=O)O)c(C)c2)cc(OC(CC)CC)c1Cl` [AAA-115, 4-(4-Chloro-3-ethoxy-5-(pentan-3-yloxy)benzamido)-2-methylbenzoic acid]: the RARγ activity ratio on RARγ was 25172. In addition, the RARβ activity ratio on RARβ came to 150. For the same molecule, on RARα, the “RARα/RARβ ratio (*)” value worked out at 58 and the RARα activity ratio is 2.6.
In the case of `CCOc1cc(C(=O)Nc2ccc(C(=O)O)c(F)c2)cc(OC(CC)CC)c1Cl` [AAA-116, 4-(4-Chloro-3-ethoxy-5-(pentan-3-yloxy)benzamido)-2-fluorobenzoic acid], at RARγ, the RARγ activity ratio was determined as 55172. Also, the RARβ activity ratio on RARβ is given as 208. For the same molecule, on RARα, the “RARα/RARβ ratio (*)” value was determined as 46 and the RARα activity ratio is 4.5.
Take `Cc1cc(NC(=O)c2cc(OC(C)C)c(Cl)c(OC(C)C)c2)ccc1C(=O)O` [AAA-117, 4-(4-Chloro-3,5-diisopropoxybenzamido)-2-methylbenzoic acid]: on RARγ, the RARγ activity ratio amounted to 29730. Moreover, the RARβ activity ratio on RARβ is reported as 273. On RARα, the “RARα/RARβ ratio (*)” value is 68 and the RARα activity ratio came out at 4.
On to `COc1cc(C(=O)Nc2ccc(C(=O)O)cc2)cc(OC(C)C)c1Cl` [AAA-118, 4-(4-Chloro-3-isopropoxy-5-methoxybenzamido)benzoic acid], for which, on RARγ, the RARγ activity ratio was 933333. Also, on RARβ, the RARβ activity ratio was determined as 1700. Further, at RARα, the “RARα/RARβ ratio (*)” value was 47 and the RARα activity ratio was found to be 36.
Turning to `CC(C)Oc1cc(C(=O)Nc2ccc(C(=O)O)cc2)cc(OC(C)C)c1F` [AAA-119, 4-(4-Fluoro-3,5-diisopropoxybenzamido)benzoic acid], the RARγ activity ratio at RARγ was more than 42000. Also, the RARβ activity ratio on RARβ is reported as 5000. Moreover, at RARα, the “RARα/RARβ ratio (*)” value stood at 192 and the RARα activity ratio was found to be 26.
